Results reported in patent US10441608B2, “Continuous methods for treating liquids and manufacturing certain constituents (e.g., nanoparticles) in liquids, apparatuses and nanoparticles and nanoparticle/liquid solution(s) resulting therefrom” (Clene Nanomedicine, Inc., priority 2009, dated 2019).
Several values for one entry are separate records, joined by “and”; a condition that tells them apart may be missing. Equal entries are not always repeated. Where two headings read alike, the source gives them in different places.

How the values were obtained:
[1] = test system: Gram-Positive and Gram Negative bacteria; assay type: cell-based
[2] = test system: Staphylococcus aureus ATCC-29213; assay: Broth microdilution MIC/MID 50 against Staphylococcus aureus; assay type: cell-based
Description: The clinical and laboratory standards institute Broth Microdilution Methodology was employed, however, the growth medium used was an “RPMI” medium. Additionally, the methods for dilution and antimicrobial susceptibility tests for bacteria that grow aerobically were also followed with the noted exception of testing with alternative media (CLSI document […], CLSI, Wayne, Pa.). […] Under the column, “Isolate” identification beginning with either “GP” or “GN” occur. The “GP” corresponds to Gram-Positive bacteria and the “GN” corresponds to “Gram Negative” bacteria. Each of the organisms are specifically listed after the isolate identification.

C[C@H]1COc2c(N3CCN(C)CC3)c(F)cc3c(=O)c(C(=O)O)cn1c23 [Levofloxacin]
0.12 mg/L: MID/MIC (amount of antibiotic) ([1]; GP34 EMRSA1 Staphylococcus aureus (MRSA), SSCmec type 3) | MID/MIC (amount of antibiotic) ([1]; GP36 HT2001254 Staphylococcus aureus (MRSA), PVL positive) | MIC/MID 50 ([1]; Staphylococcus aureus ATCC 25923 - antibiotic-susceptible control strain) | MIC/MID 50 ([1]; Staphylococcus epidermidis antibiotic susceptible clinical isolate) | MID/MIC (amount of antibiotic) ([2]; GP01 Staphylococcus aureus ATCC 29213, antibiotic-susceptible control strain) | MIC/MID 50 ([2]; Staphylococcus aureus ATCC 29213 - antibiotic-susceptible control strain)
8 mg/L: MID/MIC (amount of antibiotic) ([1]; P8119035 Citrobacter freundii, resistant clinical isolate)
0.06 mg/L: MID/MIC (amount of antibiotic) ([1]; GP35 EMRSA15 Staphylococcus aureus (MRSA), SSCmec type 4) | MIC/MID 50 ([1]; Moraxella catarrhalis β-lactamase positive clinical isolate (first of two lines so named)) | MIC/MID 50 ([1]; Moraxella catarrhalis β-lactamase positive clinical isolate (second of two lines so named)) | MIC/MID 50 ([1]; Proteus mirabilis - antibiotic-susceptible clinical isolate)
0.015 mg/L: MID/MIC (amount of antibiotic) ([1]; GP53 Clostridium perfringens, antibiotic-susceptible clinical isolate, supplemented with 2% serum and 1 μg/mL Vit K)
0.5 mg/L and 1 mg/L: MID/MIC (amount of antibiotic) ([1]; GP50 Streptococcus bovis, macrolide-resistant clinical isolate)
4.00 mg/L: MIC/MID 50 ([1]; Staphylococcus aureus - multi-drug-resistant clinical isolate) | MIC/MID 50 ([1]; Staphylococcus aureus - teicoplanin-intermediate clinical isolate)
2.00 mg/L: MIC/MID 50 ([1]; Proteus mirabilis - multi-drug resistant clinical isolate)
1 mg/L and 0.5 mg/L: MID/MIC (amount of antibiotic) ([1]; GP51 Streptococcus sanguis, antibiotic-susceptible clinical isolate)
0.5 mg/L: MID/MIC (amount of antibiotic) ([1]; GP39 Group C Streptococcus, antibiotic-susceptible clinical isolate) | MID/MIC (amount of antibiotic) ([1]; GP55 Group C Streptococcus, antibiotic-resistant clinical isolate)
>8 mg/L: MID/MIC (amount of antibiotic) ([1]; GP33 EMRSA16 Staphylococcus aureus (MRSA), SSCmec type 2)
1.00 mg/L: MIC/MID 50 ([1]; Morganella morganii - multi-drug resistant clinical isolate) | MIC/MID 50 ([1]; Stenotrophomonas maltophila - antibiotic-resistant clinical isolate) | MIC/MID 50 ([1]; Streptococcus agalactiae - antibiotic-susceptible clinical isolate) | MIC/MID 50 ([1]; Streptococcus agalactiae - macrolide-resistant clinical isolate) | MIC/MID 50 ([1]; Streptococcus bovis - antibiotic-susceptible clinical isolate) | MIC/MID 50 ([1]; Streptococcus bovis - macrolide-resistant clinical isolate) | MIC/MID 50 ([1]; Streptococcus mitis - macrolide-resistant clinical isolate) | MIC/MID 50 ([1]; Streptococcus oralis - antibiotic-susceptible clinical isolate) | MIC/MID 50 ([1]; Streptococcus oralis - macrolide-resistant clinical isolate) | MIC/MID 50 ([1]; Streptococcus pneumoniae - ATCC 49619 antibiotic-susceptible control strain) | MIC/MID 50 ([1]; Streptococcus pneumoniae - multi-drug resistant clinical isolate) | MIC/MID 50 ([1]; Streptococcus pneumoniae - pencillin-susceptible clinical isolate) | MIC/MID 50 ([1]; Streptococcus sanguis - macrolide-resistant clinical isolate)
0.25 mg/L: MID/MIC (amount of antibiotic) ([1]; GP41 Group G Streptococcus, antibiotic-susceptible clinical isolate) | MID/MIC (amount of antibiotic) ([1]; GP42 Group G Streptococcus, macrolide-resistant clinical isolate) | MIC/MID 50 ([1]; Staphylococcus aureus ATCC 43300 - methicillin-resistant control strain) | MIC/MID 50 ([1]; Staphylococcus epidermidis methicillin-resistant clinical isolate) | MIC/MID 50 ([1]; Stenotrophomonas maltophilia - antibiotic-susceptible clinical isolate)
1 mg/L: MID/MIC (amount of antibiotic) ([1]; GP37 Streptococcus agalactiae, antibiotic-susceptible clinical isolate) | MID/MIC (amount of antibiotic) ([1]; GP38 Streptococcus agalactiae, macrolide-resistant clinical isolate) | MID/MIC (amount of antibiotic) ([1]; GP43 Streptococcus mitis, antibiotic-susceptible clinical isolate) | MID/MIC (amount of antibiotic) ([1]; GP46 Streptococcus constellatus, macrolide-resistant clinical isolate) | MID/MIC (amount of antibiotic) ([1]; GP47 Streptococcus oralis, antibiotic-susceptible clinical isolate) | MID/MIC (amount of antibiotic) ([1]; GP48 Streptococcus oralis, macrolide-resistant clinical isolate) | MID/MIC (amount of antibiotic) ([1]; GP49 Streptococcus bovis, antibiotic-susceptible clinical isolate) | MID/MIC (amount of antibiotic) ([1]; GP52 Streptococcus sanguis, macrolide-resistant clinical isolate)
0.50 mg/L: MIC/MID 50 ([1]; Listeria monocytogenes - antibiotic-susceptible clinical isolate) | MIC/MID 50 ([1]; Staphylococcus haemolyticus - antibiotic susceptible clinical isolate) | MIC/MID 50 ([1]; Staphylococcus saprophyticus - antibiotic susceptible clinical isolate) | MIC/MID 50 ([1]; Streptococcus pneumoniae - penicillin-intermediate clinical isolate) | MIC/MID 50 ([1]; Streptococcus pneumoniae - penicillin-resistant clinical isolate) | MIC/MID 50 ([1]; Streptococcus pyogenes - Macrolide (MLS) resistant clinical isolate) | MIC/MID 50 ([1]; Streptococcus sanguis - antibiotic-susceptible clinical isolate)
